This passage reports Activity, Ki and inhibition results from ChEMBL document CHEMBL3421538, “Structure-activity relationships and molecular studies of novel arylpiperazinylalkyl purine-2,4-diones and purine-2,4,8-triones with antidepressant and anxiolytic-like activity” (Eur J Med Chem, 2015).

Data set [1] has as its system Mus musculus. Briefly: Toxicity in Swiss mouse assessed as spontaneous locomotor activity at 5 to 20 mg/kg, ip measured during 2 to 6 mins. In kind it is organism-based. Set-up: route intraperitoneal. The following applies: in vivo.
For data set [2], the target named is 5-hydroxytryptamine receptor 7 (Homo sapiens, UniProt P34969). Description: Displacement of [3H]LSD from human recombinant 5-HT7 receptor expressed in CHOK1 cells incubated for 60 mins by microbeta plate reader based method. It counts as cell-based, CHO-K1. In general terms: Displacement assays read how much labelled ligand stays bound in the presence of the test substance.

The target in data set [3] is T1, D(2) dopamine receptor (Homo sapiens, UniProt P14416). Description: Displacement of [3H]N-methylspiperone from human recombinant dopamine D2 receptor expressed in CHOK1 cells incubated for 60 mins by microbeta plate reader based method. It counts as cell-based, CHO-K1.
Data set [4] deals with T2, 5-hydroxytryptamine receptor 6 (Homo sapiens, UniProt P50406). Description: Displacement of [3H]LSD from human recombinant 5-HT6 receptor expressed in HEK293 cells incubated for 60 mins by microbeta plate reader based method. In kind it is cell-based.
Data set [5] addresses T3, 5-hydroxytryptamine receptor 1A (Homo sapiens) (UniProt P08908).
T3 sequence (whole entry): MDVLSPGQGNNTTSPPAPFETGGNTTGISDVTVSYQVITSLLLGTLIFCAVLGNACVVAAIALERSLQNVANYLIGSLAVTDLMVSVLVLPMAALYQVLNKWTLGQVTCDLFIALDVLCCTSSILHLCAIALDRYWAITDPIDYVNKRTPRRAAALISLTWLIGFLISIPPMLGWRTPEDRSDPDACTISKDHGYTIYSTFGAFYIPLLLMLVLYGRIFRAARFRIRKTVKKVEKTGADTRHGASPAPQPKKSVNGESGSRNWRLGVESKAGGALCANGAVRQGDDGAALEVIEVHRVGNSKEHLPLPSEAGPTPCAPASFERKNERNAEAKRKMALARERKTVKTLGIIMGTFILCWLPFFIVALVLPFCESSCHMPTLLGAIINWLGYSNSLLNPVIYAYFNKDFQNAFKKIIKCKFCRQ
Description: Agonist activity at human 5-HT1A receptor expressed in HEK293 cells assessed as stimulation of cAMP levels at 1 uM relative to 8-OH-DPAT. It counts as functional, cell-based. (In general: Changes in cAMP serve as a functional read-out for many G protein-coupled receptors.)

For data set [6], the target named is T3, 5-hydroxytryptamine receptor 1A (Homo sapiens). Description: Agonist activity at human 5-HT1A receptor expressed in HEK293 cells assessed as stimulation of cAMP levels at 0.1 uM relative to 8-OH-DPAT. In kind it is functional, cell-based.
The target in data set [7] is T1, D(2) dopamine receptor. Description: Agonist activity at human D2L receptor expressed in HEK293 cells assessed as stimulation of cAMP levels at 1 uM relative to dopamine. It counts as functional, cell-based.
Data set [8] deals with T1, D(2) dopamine receptor. Briefly: Agonist activity at human D2L receptor expressed in HEK293 cells assessed as stimulation of cAMP levels at 0.1 uM relative to dopamine. It counts as functional, cell-based.
In data set [9] the target is T3, 5-hydroxytryptamine receptor 1A (Homo sapiens). Description: Antagonist activity against human 5-HT1A receptor expressed in HEK293 cells assessed as inhibition of […]-induced cAMP levels at 1 uM. It counts as functional, cell-based.
For data set [10] the target is unchanged. Description: Antagonist activity against human 5-HT1A receptor expressed in HEK293 cells assessed as inhibition of […]-induced cAMP levels at 0.1 uM. It counts as functional, cell-based.
Data set [11] addresses T1, D(2) dopamine receptor. Briefly: Antagonist activity against human dopamine D2L receptor expressed in HEK293 cells assessed as inhibition of […]-induced cAMP levels at 1 uM. In kind it is functional, cell-based.
Data set [12] addresses T1, D(2) dopamine receptor. Briefly: Antagonist activity against human dopamine D2L receptor expressed in HEK293 cells assessed as inhibition of […]-induced cAMP levels at 0.1 uM. It counts as functional, cell-based.
Data set [13] concerns Mus musculus. Briefly: Antidepressant-like activity in Swiss mouse assessed as reduction in immobility time at 2.5 to 10 mg/kg, ip administered 60 mins before test. It counts as functional, organism-based.
The test system of data set [14] is Mus musculus. Briefly: Antidepressant-like activity in Swiss mouse assessed as reduction in immobility time at 10 mg/kg, ip administered 60 mins before test. It counts as functional. Set-up: scale not given: the % may be the effect or the level left. Conditions: route intraperitoneal.
In data set [15] the test system is Mus musculus. Briefly: Toxicity in Swiss mouse assessed as spontaneous locomotor activity at 2.5 to 10 mg/kg, ip measured during 2 to 6 mins. In kind it is organism-based. Set-up: route intraperitoneal. Conditions: in vivo.
Data set [16] concerns Mus musculus. Briefly: Anxiolytic-like activity in Swiss mouse assessed as increase in number of punished crossings measured during 60 seconds period at 2.5 mg/kg, ip by four-plate test. In kind it is functional. Conditions: route intraperitoneal.
Data set [17] has as its system Mus musculus. Description: Anxiolytic-like activity in Swiss mouse assessed as increase in number of punished crossings measured during 60 seconds period at 0.625 to 10 mg/kg, ip by four-plate test. In kind it is functional, organism-based.
The test system of data set [18] is Mus musculus. Briefly: Toxicity in Swiss mouse assessed as spontaneous locomotor activity at 0.625 to 10 mg/kg, ip. Conditions: in vivo. It counts as organism-based. Set-up: dose 0.625-10 mg/kg, route intraperitoneal.
Data set [19] deals with T4, 5-hydroxytryptamine receptor 1A (Rattus norvegicus) (UniProt P19327).
T4 sequence (whole entry): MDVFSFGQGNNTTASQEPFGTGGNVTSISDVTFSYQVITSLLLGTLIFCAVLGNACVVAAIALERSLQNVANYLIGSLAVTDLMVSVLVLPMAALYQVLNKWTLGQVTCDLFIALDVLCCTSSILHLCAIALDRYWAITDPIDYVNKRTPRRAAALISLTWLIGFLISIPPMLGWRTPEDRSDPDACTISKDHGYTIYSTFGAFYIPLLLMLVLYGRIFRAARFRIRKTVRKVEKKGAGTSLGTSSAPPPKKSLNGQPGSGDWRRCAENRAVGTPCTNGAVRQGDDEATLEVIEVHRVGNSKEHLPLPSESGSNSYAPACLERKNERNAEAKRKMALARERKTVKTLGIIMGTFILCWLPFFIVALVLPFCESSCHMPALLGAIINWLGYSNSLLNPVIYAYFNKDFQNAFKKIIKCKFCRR
Briefly: Displacement of [3H]8-OH-DPAT from rat hippocampus 5-HT1A receptor assessed as total radioligand binding at 1 uM incubated for 20 mins by microbeta plate reader based method.

The target in data set [20] is T4, 5-hydroxytryptamine receptor 1A (Rattus norvegicus). Description: Displacement of [3H]8-OH-DPAT from rat hippocampus 5-HT1A receptor assessed as total radioligand binding at 1.66 x 10^-7 M incubated for 20 mins by microbeta plate reader based method.
Data set [21] deals with T2, 5-hydroxytryptamine receptor 6. Description: Displacement of [3H]LSD from human recombinant 5-HT6 receptor expressed in HEK293 cells assessed as total radioligand binding at 1 uM incubated for 60 mins by microbeta plate reader based method. In kind it is cell-based.
The target is the same in data set [22]. Description: Displacement of [3H]LSD from human recombinant 5-HT6 receptor expressed in HEK293 cells assessed as total radioligand binding at 1.66 x 10^-7 M incubated for 60 mins by microbeta plate reader based method. It counts as cell-based.
The target in data set [23] is D(3) dopamine receptor (Homo sapiens) (UniProt P35462). Briefly: Displacement of [3H]N-methylspiperone from dopamine D3 receptor (unknown origin) assessed as total radioligand binding at 1 uM incubated for 60 mins by microbeta plate reader based method.
The target is the same in data set [24]. Briefly: Displacement of [3H]N-methylspiperone from dopamine D3 receptor (unknown origin) assessed as total radioligand binding at 1.66 x 10^-7 M incubated for 60 mins by microbeta plate reader based method.
Data set [25] concerns the target T5, 5-hydroxytryptamine receptor 1A (Rattus norvegicus, UniProt P19327).
T5 sequence (P19327 whole entry): T4 sequence (whole entry)
Briefly: Displacement of [3H]8-OH-DPAT from rat hippocampus 5-HT1A receptor incubated for 20 mins by microbeta plate reader based method.

Activity calls are given as the source filed them. The rule behind the calls is not given here.

T2 sequence (P50406 whole entry): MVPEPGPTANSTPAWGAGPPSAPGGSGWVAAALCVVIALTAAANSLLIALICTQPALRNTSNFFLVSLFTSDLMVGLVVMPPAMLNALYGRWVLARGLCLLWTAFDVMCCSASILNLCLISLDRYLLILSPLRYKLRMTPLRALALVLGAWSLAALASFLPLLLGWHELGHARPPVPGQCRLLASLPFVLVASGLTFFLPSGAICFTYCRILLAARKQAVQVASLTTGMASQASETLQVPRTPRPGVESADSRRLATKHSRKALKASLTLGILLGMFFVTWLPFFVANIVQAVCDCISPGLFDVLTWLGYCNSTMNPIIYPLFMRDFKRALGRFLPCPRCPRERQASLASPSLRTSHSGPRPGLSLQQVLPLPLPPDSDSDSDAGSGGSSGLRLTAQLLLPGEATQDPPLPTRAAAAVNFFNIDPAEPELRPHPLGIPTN
T1 sequence (P14416 whole entry): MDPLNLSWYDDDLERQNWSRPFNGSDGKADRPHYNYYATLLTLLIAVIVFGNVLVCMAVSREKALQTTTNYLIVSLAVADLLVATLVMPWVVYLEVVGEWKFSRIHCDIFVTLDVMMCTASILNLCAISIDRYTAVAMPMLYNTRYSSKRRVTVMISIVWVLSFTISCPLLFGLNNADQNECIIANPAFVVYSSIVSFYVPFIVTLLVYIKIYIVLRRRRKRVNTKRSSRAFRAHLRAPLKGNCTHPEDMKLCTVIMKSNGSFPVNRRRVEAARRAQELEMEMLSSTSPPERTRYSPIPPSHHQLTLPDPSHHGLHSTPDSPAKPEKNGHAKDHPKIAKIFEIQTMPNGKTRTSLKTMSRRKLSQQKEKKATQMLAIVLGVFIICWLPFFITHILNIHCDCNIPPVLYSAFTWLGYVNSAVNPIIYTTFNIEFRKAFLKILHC
Sequence of D(3) dopamine receptor (Homo sapiens) (P35462 whole entry): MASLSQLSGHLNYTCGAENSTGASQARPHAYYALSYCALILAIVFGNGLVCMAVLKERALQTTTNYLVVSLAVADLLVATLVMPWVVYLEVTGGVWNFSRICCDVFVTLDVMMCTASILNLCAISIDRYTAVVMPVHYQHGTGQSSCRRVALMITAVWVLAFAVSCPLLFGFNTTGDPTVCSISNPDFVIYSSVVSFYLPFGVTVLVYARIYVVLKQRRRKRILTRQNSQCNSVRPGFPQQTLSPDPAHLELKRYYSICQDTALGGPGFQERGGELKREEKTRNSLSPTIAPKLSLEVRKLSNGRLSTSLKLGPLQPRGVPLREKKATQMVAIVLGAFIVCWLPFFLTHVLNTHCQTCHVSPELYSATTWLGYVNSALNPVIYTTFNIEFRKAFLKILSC
Sequence of 5-hydroxytryptamine receptor 7 (P34969 whole entry): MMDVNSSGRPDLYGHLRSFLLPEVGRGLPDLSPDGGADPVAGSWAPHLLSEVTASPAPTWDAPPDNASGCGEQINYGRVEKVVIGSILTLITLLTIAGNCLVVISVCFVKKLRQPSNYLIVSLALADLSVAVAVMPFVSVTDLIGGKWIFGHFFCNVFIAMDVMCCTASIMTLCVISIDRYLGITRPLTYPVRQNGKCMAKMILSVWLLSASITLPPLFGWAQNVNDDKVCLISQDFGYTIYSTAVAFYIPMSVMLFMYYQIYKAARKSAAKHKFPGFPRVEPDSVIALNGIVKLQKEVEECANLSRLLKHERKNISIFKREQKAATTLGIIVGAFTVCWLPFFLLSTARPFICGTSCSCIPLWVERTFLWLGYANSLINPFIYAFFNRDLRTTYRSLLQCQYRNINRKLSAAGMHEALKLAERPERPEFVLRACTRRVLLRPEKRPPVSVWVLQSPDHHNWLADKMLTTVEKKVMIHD

On to `CN(C)CCCN1c2ccccc2CCc2ccccc21.Cl` [IMIPRAMINE HYDROCHLORIDE], for which the Activity entry in data set [1] is on record as “Non-toxic”.

For orientation: Ki means the dissociation constant of the complex between target and ligand, obtained from inhibition or displacement. What is called inhibition is the change of the read-out against control, counted positive when it falls. Regarding `Cc1cccc(N2CCN(CCCCn3c(C)cn4c5c(=O)n(C)c(=O)n(C)c5nc34)CC2)c1C`, the Ki in data set [2] was 381 nM; in [3], 27 nM; in data set [4] it was 510 nM; in data set [25], under 1 nM. The Activity in [5] is 61.5%; in data set [6] it was 55.7%; in [7] it was 37.6%; in data set [8] it was 35.3%; in [14], 20%; in [15], “Non-toxic”. For the same compound, the Activity in data set [16] is 67%; in data set [18] it was “Non-toxic”; in data set [19], 42%; in data set [20] it was 75%; in data set [21], 68%; in data set [22], 81%. Moreover, the Activity in data set [23] was 34%; in data set [24], 43%. For the same compound, the inhibition stood at 105% in [9], 102% in data set [10], 73.8% in data set [11] and 38.4% in data set [12]. Further, the outcome in [13] and in data set [17] was Active.
